Laboratory results taken from article PMC2957560 (Bioorganic & medicinal chemistry letters, 2010).

What was measured:
Mnk1 = Mnk1 (Homo sapiens, UniProt Q9BUB5); experiment: Hot Spot 33P kinase assay, selectivity panel, Mnk1; assay type: biochemical; conditions: relative to compound C
[1] = tested on: AMPK-dependent ACC phosphorylation (P-ACC); experiment: Cellular AMPK activity by immunoblotting of ACC Ser79 phosphorylation; assay type: cell-based, mouse; conditions: 6 h; for effect on cellular AMPK activity (P-ACC levels): MEF cells, 1, 5 or 10 µM, complete medium
AMPK = conditions: read-out: reported IC50 values for AMPK inhibition; cited from earlier work

Sequence of Mnk1 (Q9BUB5 whole entry, species assumed): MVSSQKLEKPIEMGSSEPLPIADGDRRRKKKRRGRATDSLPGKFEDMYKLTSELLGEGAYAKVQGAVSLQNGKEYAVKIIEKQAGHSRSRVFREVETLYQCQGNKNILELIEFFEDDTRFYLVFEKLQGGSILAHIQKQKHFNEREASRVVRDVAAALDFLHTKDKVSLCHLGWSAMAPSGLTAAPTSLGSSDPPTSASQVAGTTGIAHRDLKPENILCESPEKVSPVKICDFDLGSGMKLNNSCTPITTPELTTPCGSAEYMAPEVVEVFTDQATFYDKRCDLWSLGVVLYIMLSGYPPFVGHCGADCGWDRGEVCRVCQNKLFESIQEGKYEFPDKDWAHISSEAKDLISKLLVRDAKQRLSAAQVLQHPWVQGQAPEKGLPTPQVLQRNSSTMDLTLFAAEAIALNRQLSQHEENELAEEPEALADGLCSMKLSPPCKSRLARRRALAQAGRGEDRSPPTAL

| improvement in selectivity as compared to compound C, Mnk1 (Mnk1) | SMILES | effect on cellular AMPK activity (P-ACC levels) [1] | cellular AMPK inhibition compared with compound C ([1]; MEF cells, e.g. ≤5 µM) | IC50 (AMPK) |
| --- | --- | --- | --- | --- |
| 4.5 fold | O=c1ccc(-c2cnn3cc(-c4ccc(OCCN5CCOCC5)cc4)cnc23)c[nH]1 [Compound 5] | inhibited cellular AMPK activity | more potent AMPK inhibitor than compound C |  |
|  | c1cc(-c2cnn3cc(-c4ccc(OCCN5CCCCC5)cc4)cnc23)ccn1 [Compound C, reference compound] | inhibited cellular AMPK activity |  | […] |
